Assay results as given in BindingDB's records for doi:10.1016/j.ejmech.2017.08.029 (Emory University, 2017).

Test: Inhibition of human GLUT1 in human KMS11 cells over-expressing human GLUT1 assessed as as inhibition of receptor-mediated cell proliferation after 72 hrs by CellTiter-Glo assay

Row | SMILES | IC50
1 | COc1ccc(C(=O)N(Cc2ccncc2)Cc2cccc(OCCc3ccc(Br)cc3)c2)cc1 | 6.5 µM
2 | COc1ccc(C(=O)N(Cc2ccncc2)Cc2cccc(OCc3ccc([N+](=O)[O-])cc3)c2)cc1 | 11.7 µM
3 | COc1ccc(C(=O)N(Cc2ccncc2)Cc2cccc(OCC(=O)c3cccc(Br)c3)c2)cc1 | 21.4 µM
4 | COc1ccc(C(=O)N(Cc2ccncc2)Cc2cccc(OCc3cccc(OC)c3)c2)cc1 | 28.5 µM
5 | O=C(c1ccc(Cl)cc1)N(Cc1ccncc1)Cc1cccc(OCCc2ccc(F)cc2)c1 | 15.6 µM
6 | COc1ccc(C(=O)N(Cc2ccncc2)Cc2cccc(OCc3ccc(F)cc3)c2)cc1 | 28.6 µM
7 | COc1ccc(C(=O)N(Cc2ccncc2)Cc2cccc(OCC3CCOCC3)c2)cc1 | 25.8 µM
8 | COc1ccc(C(=O)N(Cc2ccncc2)Cc2cccc(OCCc3cccc(C(F)(F)F)c3)c2)cc1 | 15.1 µM
9 | COc1ccc(C(=O)N(Cc2ccncc2)Cc2cccc(OCCc3ccc(C)cc3)c2)cc1 | 12.7 µM
10 | COc1ccc(C(=O)N(Cc2ccncc2)Cc2cccc(OCC3CCCCC3)c2)cc1 | 16 µM
11 | COc1ccc(C(=O)N(Cc2ccncc2)Cc2cccc(OCCc3ccccc3)c2)cc1 | 21 µM
12 | COc1ccc(C(=O)N(Cc2ccncc2)Cc2cccc(OCc3ccc(C(F)(F)F)cc3)c2)cc1 | 16.8 µM
13 | COc1ccc(CC(=O)N(Cc2ccncc2)Cc2cccc(OCCc3ccc(F)cc3)c2)cc1 | 21.8 µM
14 | COc1ccc(C(=O)N(Cc2ccncc2)Cc2cccc(OCC(=O)c3ccc(Cl)cc3)c2)cc1 | 16.9 µM
